# Several values for one entry are separate records, joined by “and”; a condition that tells them apart may be missing. Identical values can stand only once. Like-named read-outs stand apart in the source and are kept apart here.
# How the values were obtained:
# [1] = set-up: method as in Selleck L1300 library file; details: ref Selleck L1300 library file, cited from earlier work
# TMPRSS2 = TMPRSS2 (Homo sapiens, UniProt O15393); assay: TMPRSS2 activity assay (Boc-Gln-Ala-Arg-MCA fluorescence); format: biochemical; set-up: purchased LSBio; details: replicates
# Description: Fluorescence (380-15 nm excitation/470-20 nm emission) of the samples was monitored over 4:45 h and the slope of the curves was calculated by linear regression analysis and used as output for TMPRSS2 activity.
# SARS-CoV-2 pseudovirus [2] = format: cell-based
# in vitro = details: human
# [3] = human, cited from earlier work
# SARS-CoV-2 pseudovirus [4] = assay: microbe, parasite or virus in culture; format: cell-based; details: for IC50: Severe acute respiratory syndrome-related coronavirus, Caco-2, read-out: In vitro IC50 (viral entry)
# [5] = tested on: TMPRSS2-HiBiT-BEAS-2B cells
# B-RafV600E = tested on: B-RafV600E; set-up: method as in selleckchem.com; details: ref selleckchem.com, cited from earlier work
# Chain of TMPRSS2 (O15393 106-492): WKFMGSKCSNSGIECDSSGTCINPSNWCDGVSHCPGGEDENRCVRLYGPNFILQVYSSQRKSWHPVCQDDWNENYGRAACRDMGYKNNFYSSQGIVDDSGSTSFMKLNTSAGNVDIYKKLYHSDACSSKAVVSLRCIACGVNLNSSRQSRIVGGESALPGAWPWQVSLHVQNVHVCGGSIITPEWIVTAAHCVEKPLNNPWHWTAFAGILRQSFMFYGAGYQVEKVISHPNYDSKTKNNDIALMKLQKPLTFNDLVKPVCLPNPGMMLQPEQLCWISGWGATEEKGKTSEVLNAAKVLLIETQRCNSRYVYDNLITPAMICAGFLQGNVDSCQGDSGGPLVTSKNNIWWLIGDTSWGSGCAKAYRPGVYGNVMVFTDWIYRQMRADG
compound,measurement,setting,value
C[C@H]1O[C@H](O[C@H]2[C@H](O)[C@@H](O)[C@@H](O[C@H]3[C@H](O)[C@@H](O)C(O)O[C@@H]3CO)O[C@@H]2CO)[C@H](O)[C@@H](O)[C@@H]1N[C@H]1C=C(CO)[C@@H](O)[C@H](O)[C@H]1O (stereo partly drawn) [Acarbose],DMSO (mM)Max Solubility,[1],154.89 mM
same,DMSO (mg/mL)Max Solubility,[1],100.00 mg/mL
same,water (mM)Max Solubility,[1]; water,154.89 mM
same,water (mg/mL)Max Solubility,[1]; water,100.00 mg/mL
CNC(=O)c1ccccc1Sc1ccc2c(/C=C/c3ccccn3)n[nH]c2c1 [Axitinib],DMSO (mM)Max Solubility,[1],90.56 mM
same,DMSO (mg/mL)Max Solubility,[1],35.00 mg/mL
same,water (mg/mL)Max Solubility,[1]; water,<1 mg/mL
CN(C)C(=O)COC(=O)Cc1ccc(OC(=O)c2ccc(NC(=N)N)cc2)cc1 [Camostat],TMPRSS2 activity (FigS9 source data),TMPRSS2; 0.08 µM,-0.0086 and -0.0028 and 0.0044 and -0.0059
same,TMPRSS2 activity (FigS9 source data),TMPRSS2; 0.4 µM,-0.037 and -0.0342 and -0.033 and -0.0254
same,TMPRSS2 activity (FigS9 source data),TMPRSS2; 2 µM,-0.0401 and -0.0361 and -0.044 and -0.0525
same,signal relative to Vehicle (FigS7 source data),SARS-CoV-2 pseudovirus [2],0.7432 and 0.6624 and 0.6548
COCCOC(=O)C1=C(C)NC(C)=C(C(=O)OC/C=C/c2ccccc2)C1c1cccc([N+](=O)[O-])c1 (stereo not drawn) [Cilnidipine],CC50,in vitro,> 10 µM
same,Cmax,[3]; 10 mg Oral (QD),18.1 nM
same,viral entry,SARS-CoV-2 pseudovirus [4],effective in reducing viral entry
same,IC50,SARS-CoV-2 pseudovirus [4],~3 µM
Cc1nc(Nc2ncc(C(=O)Nc3c(C)cccc3Cl)s2)cc(N2CCN(CCO)CC2)n1 [Dasatinib],CC50,in vitro,> 10 µM
same,Cmax,[3]; 140 mg Oral (QD),307 nM
same,viral entry,SARS-CoV-2 pseudovirus [4],effective in reducing viral entry
same,IC50,SARS-CoV-2 pseudovirus [4],> 10 µM
same,signal relative to Vehicle (FigS7 source data),SARS-CoV-2 pseudovirus [2],0.6399 and 0.7584 and 0.6593
COC(=O)Nc1nc2cc(C(=O)c3ccc(F)cc3)ccc2[nH]1 [Flubendazole],ATP Glo,[5]; conc 3,0.991 and 1.045 and 1.023
"Cc1nc(C(=O)NCC(=O)O)c(O)c2ccc(Oc3ccccc3)cc12 [Roxadustat (FG-4592), Roxadustat]",DMSO (mM)Max Solubility,[1],198.67 mM
same,DMSO (mg/mL)Max Solubility,[1],70.00 mg/mL
same,water (mg/mL)Max Solubility,[1]; water,<1 mg/mL
Cc1coc2c1C(=O)C(=O)c1c-2ccc2c1CCCC2(C)C [Tanshinone IIA],ATP Glo,[5]; conc 0.01,1.137 and 1.427 and 1.128
"CCCS(=O)(=O)Nc1ccc(F)c(C(=O)c2c[nH]c3ncc(-c4ccc(Cl)cc4)cc23)c1F [Vemurafenib (PLX4032, RG7204), Vemurafenib]",DMSO (mM)Max Solubility,[1],197.99 mM
same,DMSO (mg/mL)Max Solubility,[1],97.00 mg/mL
same,water (mg/mL)Max Solubility,[1]; water,<1 mg/mL
same,IC50,B-RafV600E; cell-free assay,0.031 µM
same,selectivity for B-RafV600E over wild-type B-Raf,B-RafV600E; enzymatic assays,10 fold
CC1(C)CCC(CN2CCN(c3ccc(C(=O)NS(=O)(=O)c4ccc(NCC5CCOCC5)c([N+](=O)[O-])c4)c(Oc4cnc5[nH]ccc5c4)c3)CC2)=C(c2ccc(Cl)cc2)C1 [Venetoclax],CC50,in vitro,> 10 µM
same,Cmax,[3]; 400 mg Oral (QD),1270 nM
same,viral entry,SARS-CoV-2 pseudovirus [4],effective in reducing viral entry
same,IC50,SARS-CoV-2 pseudovirus [4],> 10 µM
same,signal relative to Vehicle (FigS7 source data),SARS-CoV-2 pseudovirus [2],0.618 and 0.6416 and 0.6544
Verteporfin [reference compound],CC50,[5],> 10 µM

# — article PMC8222394 (Nature Communications, 2021)
